Data from PubChem BioAssay AID192 (DTP/NCI, 2004).
Where “and” joins values, the source holds several entries; their conditions need not be identical. Equal values may be shown once. Toxic doses and inconclusive results are not listed. The calls were made as follows: active = survival T/C of 150% or more; inactive = T/C below 125% in these data. Square brackets hold non-standard residues; d marks the D form. Peptide text beside a SMILES is read from it. * marks the point of attachment. ξ: configuration not given here. ξAsp(βξ-Me) = CC(C(=O)O)C(N)C(=O)O; X4 = CC(N*)C1NC(=O)C2CCCCN2C1=O; ξAbu(3ξ-NH2) = CC(N)C(N)C(=O)O; X3 = CCC(C)CCC/C=C/CC(=O)*

Tested on: BDF1 mice, B16 melanoma ip, median survival T/C
Experiment: NCI In Vivo Anticancer Drug Screen. Data for tumor model B16 Melanoma (intraperitoneal) in B6D2F1 (BDF1) mice
Conditions: endpoint: median survival time, higher = longer survival
Procedure, shortened: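 Read-out: survival or tumor size, given as treated/control ratio. Controls received vehicle only; animals bore transplantable tumors.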

[1] = dose: 100.0 mg/kg/injection, schedule: Q04DX003 (ip), vehicle: Klucel (hydroxypropylcellulose) (HPC)
[2] = dose: 200.0 mg/kg/injection, schedule: Q04DX003 (ip), vehicle: Klucel (hydroxypropylcellulose) (HPC)
[3] = dose: 12.5 mg/kg/injection, schedule: Q01DX009 (ip), vehicle: saline with Tween-80
[4] = dose: 50.0 mg/kg/injection, schedule: Q01DX009 (ip), vehicle: saline with Tween-80
[5] = dose: 6.25 mg/kg/injection, schedule: Q01DX009 (ip), vehicle: saline with Tween-80
[6] = dose: 25.0 mg/kg/injection, schedule: Q01DX009 (ip), vehicle: saline with Tween-80
[7] = dose: 100.0 mg/kg/injection, schedule: Q01DX009 (ip), vehicle: saline with Tween-80
[8] = dose: 100.0 mg/kg/injection, schedule: Q04DX003 (ip), vehicle: saline
[9] = dose: 100.0 mg/kg/injection, schedule: Q01DX009 (ip), vehicle: Klucel (hydroxypropylcellulose) (HPC)
[10] = dose: 200.0 mg/kg/injection, schedule: Q01DX009 (ip), vehicle: Klucel (hydroxypropylcellulose) (HPC)
[11] = dose: 12.5 mg/kg/injection, schedule: Q01DX009 (ip), vehicle: Klucel (hydroxypropylcellulose) (HPC)
[12] = dose: 200.0 mg/kg/injection, schedule: Q01DX009 (ip), vehicle: saline with Tween-80
[13] = dose: 25.0 mg/kg/injection, schedule: Q01DX009 (ip), vehicle: Klucel (hydroxypropylcellulose) (HPC)
[14] = dose: 50.0 mg/kg/injection, schedule: Q01DX009 (ip), vehicle: Klucel (hydroxypropylcellulose) (HPC)

Measured: T/C

CCCCCCCCCCCC[N+](C)(C)C (tested in a mixture with another compound)
inactive: dose: 3.5 mg/kg/injection, schedule: Q01DX009 (ip), vehicle: saline 98 % of control | dose: 7.0 mg/kg/injection, schedule: Q01DX009 (ip), vehicle: saline 86 % of control | dose: 14.0 mg/kg/injection, schedule: Q01DX009 (ip), vehicle: saline 90 % of control

Cc1ccc(C(=O)/C(=C/c2ccccc2)c2ccccc2)cc1
inactive: [1] 113 % of control | [2] 113 % of control | dose: 400.0 mg/kg/injection, schedule: Q04DX003 (ip), vehicle: Klucel (hydroxypropylcellulose) (HPC) 104 % of control

C[n+]1ccccc1/C=C/c1cccc([N+](=O)[O-])c1
inactive: dose: 5.0 mg/kg/injection, schedule: Q01DX009 (ip), vehicle: saline with Tween-80 110 % of control | dose: 5.0 mg/kg/injection, schedule: Q04DX003 (ip), vehicle: saline with Tween-80 105 % of control | dose: 10.0 mg/kg/injection, schedule: Q01DX009 (ip), vehicle: saline with Tween-80 100 % of control | dose: 20.0 mg/kg/injection, schedule: Q01DX009 (ip), vehicle: saline with Tween-80 100 % of control | dose: 20.0 mg/kg/injection, schedule: Q04DX003 (ip), vehicle: saline with Tween-80 89 % of control

O=C(O)CC(Br)C(=O)c1ccccc1 (configuration not stated)
inactive: dose: 12.5 mg/kg/injection, schedule: Q04DX003 (ip), vehicle: saline with Tween-80 93 % of control | dose: 25.0 mg/kg/injection, schedule: Q04DX003 (ip), vehicle: saline with Tween-80 86 % of control | dose: 50.0 mg/kg/injection, schedule: Q04DX003 (ip), vehicle: saline with Tween-80 88 % of control

CC(C)N1C(=O)C=C(c2ccc([N+](=O)[O-])cc2)C1=O
inactive: [3] 95 % of control | [4] 99 % of control

C=C/C(C)=C/[C@H](C)C(=O)C[C@H](O)CC1CC(=O)NC(=O)C1
inactive: [5] 121 % of control | [3] 109 % of control | [6] 121 % of control | [7] 121 % of control

CN1CCC=C(CN2c3ccccc3Sc3ccccc32)C1
inactive: dose: 25.0 mg/kg/injection, schedule: Q01DX009 (ip), vehicle: saline 104 % of control | dose: 50.0 mg/kg/injection, schedule: Q01DX009 (ip), vehicle: saline 106 % of control

[Cl][Pt+2][Cl].[NH-]c1cc(Cl)c(Cl)cc1[NH-]
inactive: dose: 40.0 mg/kg/injection, schedule: Q01DX009 (ip), vehicle: saline with Tween-80 114 % of control | dose: 80.0 mg/kg/injection, schedule: Q01DX009 (ip), vehicle: saline with Tween-80 118 % of control | dose: 320.0 mg/kg/injection, schedule: Q01DX009 (ip), vehicle: saline with Tween-80 113 % of control

Cc1cccnc1C
inactive: dose: 25.0 mg/kg/injection, schedule: Q04DX003 (ip), vehicle: saline 103 % of control | dose: 50.0 mg/kg/injection, schedule: Q04DX003 (ip), vehicle: saline 104 % of control | [8] 112 % of control

CCC(C)CCC/C=C/CC(=O)NC(CC(=O)O)C(=O)NC(C(=O)NC(CC(=O)O)C(=O)NCC(=O)NC(CC(=O)O)C(=O)NCC(=O)NC(C(=O)NC(C(=O)N1CCCC1C(=O)NC(C)C1NC(=O)C2CCCCN2C1=O)C(C)C)C(C)N)C(C)C(=O)O (stereo not drawn) (X3-D[ξAsp(βξ-Me)]DGDG[ξAbu(3ξ-NH2)]VP-X4; configuration not given here)
inactive: dose: 100.0 mg/kg/injection, schedule: Q01DX009 (ip), vehicle: saline + alcohol 90 % of control | dose: 200.0 mg/kg/injection, schedule: Q01DX009 (ip), vehicle: saline + alcohol 93 % of control

Brc1cc(Br)c(-c2c(Br)cc(Br)cc2Br)c(Br)c1
inactive: [9] 102 % of control | [10] 88 % of control

S=C=NCC(Br)CBr (configuration not stated)
inactive: dose: 6.25 mg/kg/injection, schedule: Q01DX009 (ip), vehicle: Klucel (hydroxypropylcellulose) (HPC) 86 % of control | [11] 86 % of control

CCN(C(=O)Nc1cccc(Cl)c1)c1ccccc1C
inactive: [7] 100 % of control | [12] 100 % of control | dose: 400.0 mg/kg/injection, schedule: Q01DX009 (ip), vehicle: saline with Tween-80 94 % of control

O=C(Nc1ccccc1)c1ccc(C(F)(F)F)cc1O
inactive: [13] 95 % of control | [14] 95 % of control

CC1(C)N=C(N)N=C(N)N1c1cccc(CCC(=O)Nc2ccc(S(=O)(=O)F)cc2)c1
inactive: dose: 30.0 mg/kg/injection, schedule: Q01DX009 (ip), vehicle: saline with Tween-80 113 % of control | dose: 60.0 mg/kg/injection, schedule: Q01DX009 (ip), vehicle: saline with Tween-80 123 % of control | dose: 120.0 mg/kg/injection, schedule: Q01DX009 (ip), vehicle: saline with Tween-80 110 % of control

CN1CCC2(CC1)SSC1(CCN(C)CC1)S2
inactive: dose: 100.0 mg/kg/injection, schedule: Q01DX009 (ip), vehicle: saline 122 % of control | [8] 91 % of control | dose: 200.0 mg/kg/injection, schedule: Q01DX009 (ip), vehicle: saline 116 % of control | dose: 200.0 mg/kg/injection, schedule: Q04DX003 (ip), vehicle: saline 91 % of control

COc1cc2cc[n+](C)cc2cc1OC
inactive: dose: 6.25 mg/kg/injection, schedule: Q01DX009 (ip), vehicle: water 95 % of control | dose: 12.5 mg/kg/injection, schedule: Q01DX009 (ip), vehicle: water 95 % of control | dose: 25.0 mg/kg/injection, schedule: Q01DX009 (ip), vehicle: water 97 % of control | dose: 50.0 mg/kg/injection, schedule: Q01DX009 (ip), vehicle: water 92 % of control

CCc1cc2c(cc1C(=O)CBr)C(C)(C)CCC2(C)C
inactive: dose: 3.13 mg/kg/injection, schedule: Q01DX009 (ip), vehicle: saline with Tween-80 100 % of control | [5] 94 % of control | [3] 92 % of control and 99 % of control | [6] 94 % of control

CCOc1ccccc1NC(=O)CC(C)=O
inactive: [9] 100 % of control | [10] 97 % of control

Cc1ccc(Cl)cc1NC(=O)c1ccc(Cl)cc1Cl
inactive: [1] 95 % of control | [2] 102 % of control

CCOC(=O)CNC(=O)Sc1ccc(C(C)(C)C)cc1
inactive: [11] 97 % of control | [13] 101 % of control | [14] 104 % of control | [9] 106 % of control | [10] 106 % of control | dose: 400.0 mg/kg/injection, schedule: Q01DX009 (ip), vehicle: Klucel (hydroxypropylcellulose) (HPC) 120 % of control

Nc1ccc(S(=O)(=O)c2ccc(N)cc2)cc1
inactive: [3] 107 % of control | [6] 97 % of control and 102 % of control | [4] 90 % of control and 94 % of control | [7] 93 % of control and 95 % of control | [12] 94 % of control

CO/C(=C\c1ccc(OC)cc1)C(=O)O
inactive: dose: 50.0 mg/kg/injection, schedule: Q04DX003 (ip), vehicle: Klucel (hydroxypropylcellulose) (HPC) 94 % of control | [1] 100 % of control | [2] 111 % of control

COc1ccccc1NC(=O)Nc1cccc(C)c1C
inactive: [9] 87 % of control | [10] 86 % of control

CC(C)(C)C1CCNC(=O)CC1 (configuration not stated)
inactive: dose: 5.0 mg/kg/injection, schedule: Q01DX009 (ip), vehicle: Klucel (hydroxypropylcellulose) (HPC) 88 % of control | dose: 10.0 mg/kg/injection, schedule: Q01DX009 (ip), vehicle: Klucel (hydroxypropylcellulose) (HPC) 94 % of control | dose: 20.0 mg/kg/injection, schedule: Q01DX009 (ip), vehicle: Klucel (hydroxypropylcellulose) (HPC) 97 % of control
